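Values below derive from 48-hour exposures of cells grown in 96-well plates, with endpoints linearly interpolated between the two concentrations bracketing the appropriate inhibition level. GI50 is the concentration that inhibits growth by half. TGI: total growth inhibition.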
Key:
Assay in all cases: growth of human tumour cells (NCI), 48 h; in the data active = GI50 below about 0.43 µM; inactive = the rest
[1] = test system: HCC-2998 colon
[2] = test system: DU-145 prostate
[3] = test system: MCF7 breast
[4] = test system: MDA-MB-231 breast
[5] = test system: PC-3 prostate
[6] = test system: HT29 colon
[7] = test system: SW-620 colon
[8] = test system: OVCAR-3 ovarian
[9] = test system: K-562 leukemia
[10] = test system: U251 CNS
[11] = test system: NCI-H460 lung
[12] = test system: ACHN renal
[13] = test system: NCI-H226 lung
[14] = test system: RXF 393 renal
[15] = test system: LOX IMVI melanoma
[16] = test system: UACC-62 melanoma
[17] = test system: SF-295 CNS
[18] = test system: HOP-62 NSCLC
[19] = test system: BT-549 breast
[20] = test system: IGROV1 ovarian
[21] = test system: MALME-3M melanoma
[22] = test system: OVCAR-5 ovarian
[23] = test system: SF-268 CNS
[24] = test system: A498 renal
[25] = test system: MDA-MB-435
[26] = test system: KM12 colon
[27] = test system: SN12C renal
[28] = test system: RPMI-8226 leukemia
[29] = test system: UACC-257 melanoma
[30] = test system: T-47D breast
[31] = test system: OVCAR-8 ovarian
[32] = test system: SNB-75 CNS
[33] = test system: HCT-15 colon
[34] = test system: EKVX NSCLC
[35] = test system: CAKI-1 renal
[36] = test system: SK-MEL-2 melanoma
[37] = test system: NCI-H522 lung
[38] = test system: 786-0 renal
[39] = test system: SR leukemia
[40] = test system: CCRF-CEM leukemia
[41] = test system: NCI/ADR-RES ovarian
[42] = test system: HL-60(TB) leukemia
[43] = test system: SF-539 CNS
[44] = test system: SK-OV-3 ovarian
[45] = test system: SK-MEL-5 melanoma
[46] = test system: HOP-92 NSCLC
[47] = test system: UO-31 renal
[48] = test system: A549 NSCLC
[49] = test system: TK-10 renal
[50] = test system: HCT-116 colon
[51] = test system: OVCAR-4 ovarian
[52] = test system: MOLT-4 leukemia
[53] = test system: NCI-H23 lung
[54] = test system: M14 melanoma
[55] = test system: COLO 205 colon
[56] = test system: SNB-19 CNS
[57] = test system: SK-MEL-28 melanoma
[58] = test system: HS 578T breast

C[C@]12CCC3c4ccc(O)cc4CCC3C1CC[C@@]2(O)C#Cc1ccc(C#C/C=C\C#Cc2ccccc2N)cc1 (stereo not given in full)
41 µM: TGI [24] | TGI [45]
80.4 µM: TGI [10]
43.6 µM: TGI [12]
active: GI50 [3] 0.308 µM
48.2 µM: TGI [13]
48.1 µM: TGI [21]
79.7 µM: TGI [28]
inactive: GI50 [1] 25.6 µM | GI50 [2] 23.9 µM | GI50 [4] 21 µM | GI50 [5] 15.6 µM | GI50 [6] 25.8 µM | GI50 [7] 40 µM | GI50 [8] 13.8 µM | GI50 [9] 12.4 µM | GI50 [10] 19 µM | GI50 [11] 12.6 µM | GI50 [12] 17.8 µM | GI50 [13] 20.2 µM | GI50 [14] 36.3 µM | GI50 [15] 35.8 µM | GI50 [16] 15.2 µM | GI50 [17] 17.1 µM | GI50 [18] 28.7 µM | GI50 [19] 19.2 µM | GI50 [20] 87.1 µM | GI50 [21] 17.2 µM | GI50 [22] 38.4 µM | GI50 [23] 24.8 µM | GI50 [24] 21.7 µM | GI50 [25] 31.7 µM | GI50 [26] 9.66 µM | GI50 [27] 21.7 µM | GI50 [28] 7.56 µM | GI50 [29] 28.7 µM | GI50 [30] > 100 µM | GI50 [31] 47.4 µM | GI50 [32] > 100 µM | GI50 [33] 22.2 µM | GI50 [34] 20.3 µM | GI50 [35] 20.6 µM | GI50 [36] 42.2 µM | GI50 [37] 17 µM | GI50 [38] 20.5 µM | GI50 [39] > 100 µM | GI50 [40] > 100 µM | GI50 [41] 17.7 µM | GI50 [42] 26.7 µM | GI50 [43] 21.3 µM | GI50 [44] 39.7 µM | GI50 [45] 17.9 µM | GI50 [46] 16 µM | GI50 [47] 15.9 µM | GI50 [48] 32.9 µM | GI50 [49] 36.6 µM | GI50 [50] 12.3 µM | GI50 [51] 23.6 µM | GI50 [52] 57.5 µM | GI50 [53] 26.5 µM | GI50 [54] 29.5 µM
57.5 µM: TGI [38]
86.5 µM: TGI [9]
48 µM: TGI [8]
52.6 µM: TGI [43]
46.5 µM: TGI [46]
85.1 µM: TGI [47]
53.5 µM: TGI [4]
55.3 µM: TGI [5]
41.2 µM: TGI [16]
> 100 µM: TGI [2] | TGI [3] | TGI [6] | TGI [7] | TGI [11] | TGI [14] | TGI [15] | TGI [17] | TGI [20] | TGI [22] | TGI [23] | TGI [25] | TGI [26] | TGI [29] | TGI [30] | TGI [31] | TGI [32] | TGI [33] | TGI [36] | TGI [37] | TGI [39] | TGI [40] | TGI [42] | TGI [44] | TGI [48] | TGI [49] | TGI [50] | TGI [51] | TGI [52] | TGI [53] | TGI [54]
65.5 µM: TGI [34]
68.6 µM: TGI [35]
52.2 µM: TGI [41]
54.5 µM: TGI [1]
61.1 µM: TGI [27]
70 µM: TGI [18]
45.1 µM: TGI [19]

COc1ccc(-c2cc(-c3ccc(Nc4ccnc5cc(C(F)(F)F)ccc45)cc3)nc(N)c2C#N)cc1
> 100 µM: TGI [1] | TGI [55] | TGI [2] | TGI [3] | TGI [4] | TGI [5] | TGI [6] | TGI [7] | TGI [9] | TGI [10] | TGI [11] | TGI [12] | TGI [13] | TGI [14] | TGI [15] | TGI [16] | TGI [17] | TGI [18] | TGI [19] | TGI [21] | TGI [22] | TGI [24] | TGI [25] | TGI [26] | TGI [28] | TGI [30] | TGI [33] | TGI [56] | TGI [34] | TGI [57] | TGI [35] | TGI [36] | TGI [38] | TGI [39] | TGI [41] | TGI [42] | TGI [43] | TGI [44] | TGI [45] | TGI [47] | TGI [48] | TGI [49] | TGI [51] | TGI [52] | TGI [53] | TGI [54]
90 µM: TGI [46]
33.7 µM: TGI [8]
78.7 µM: TGI [50]
71.6 µM: TGI [32]

O=C1OCC2=C1C(c1cccc(Cl)c1)c1cc3c(cc1N2CCO)OCO3 (stereo not given)
14.4 µM: TGI [4]
3.7 µM: TGI [42]
> 63.7 µM: TGI [27]
14.3 µM: TGI [1]
> 100 µM: TGI [3] | TGI [7] | TGI [9] | TGI [12] | TGI [22] | TGI [32] | TGI [33] | TGI [56] | TGI [57] | TGI [40] | TGI [49] | TGI [51] | TGI [53]
> 36.3 µM: TGI [50]
> 65.8 µM: TGI [31]
> 41.8 µM: TGI [38]
10.5 µM: TGI [44]
17.7 µM: TGI [10]
> 41 µM: TGI [41]
2.55 µM: TGI [24]
active: GI50 [55] 0.36 µM | GI50 [3] 0.313 µM | GI50 [5] 0.381 µM | GI50 [6] 0.364 µM | GI50 [7] 0.358 µM | GI50 [8] 0.27 µM | GI50 [9] 0.354 µM | GI50 [10] 0.383 µM | GI50 [11] 0.414 µM | GI50 [14] 0.278 µM | GI50 [16] 0.36 µM | GI50 [17] 0.26 µM | GI50 [24] 0.23 µM | GI50 [25] 0.0383 µM | GI50 [26] 0.398 µM | GI50 [29] 0.256 µM | GI50 [32] 0.281 µM | GI50 [35] 0.216 µM | GI50 [37] 0.228 µM | GI50 [39] 0.359 µM | GI50 [41] 0.301 µM | GI50 [42] 0.328 µM | GI50 [43] 0.303 µM | GI50 [44] 0.412 µM | GI50 [45] 0.256 µM | GI50 [54] 0.36 µM
57.7 µM: TGI [18]
97.8 µM: TGI [52]
4.73 µM: TGI [6]
inactive: GI50 [1] 1.07 µM | GI50 [2] 0.512 µM | GI50 [4] 1.66 µM | GI50 [58] 0.445 µM | GI50 [12] 0.785 µM | GI50 [13] 0.753 µM | GI50 [15] 0.6 µM | GI50 [18] 0.481 µM | GI50 [19] 0.603 µM | GI50 [20] 2.79 µM | GI50 [22] 1.26 µM | GI50 [23] 0.7 µM | GI50 [27] 0.817 µM | GI50 [28] 0.535 µM | GI50 [31] 0.503 µM | GI50 [33] 0.428 µM | GI50 [56] 0.784 µM | GI50 [34] 2.59 µM | GI50 [57] 0.755 µM | GI50 [36] 2.44 µM | GI50 [38] 0.558 µM | GI50 [40] 0.527 µM | GI50 [47] 0.465 µM | GI50 [48] 0.498 µM | GI50 [49] 17.7 µM | GI50 [50] 0.466 µM | GI50 [51] 0.696 µM | GI50 [52] 1.14 µM | GI50 [53] 0.502 µM
> 87.2 µM: TGI [34]
12.5 µM: TGI [45]
> 22.5 µM: TGI [54]
> 74.4 µM: TGI [20]
29.6 µM: TGI [26]
> 35.3 µM: TGI [11]
16.9 µM: TGI [2]
27 µM: TGI [15]
> 43.7 µM: TGI [5]
22.4 µM: TGI [17]
> 44.3 µM: TGI [36]
35.8 µM: TGI [28]
33.5 µM: TGI [48]
1.38 µM: TGI [55]
70.4 µM: TGI [39]
16.2 µM: TGI [37]
34.6 µM: TGI [23]
22.6 µM: TGI [35]
> 44.6 µM: TGI [16]
> 65.4 µM: TGI [47]
0.233 µM: TGI [25]
20 µM: TGI [13]
> 58.2 µM: TGI [58]
0.811 µM: TGI [8]
> 44.5 µM: TGI [29]
